Assay results as given in PMC12730730, “CAPE Derivatives as Potent Agents for Induction of Osteogenic Differentiation in DPSCs and Biomaterial Development” (Biomedicines, 2025).
Entries after “also recorded” stand apart in the source; their conditions may differ.

Assays:
[1] = Kinetic of chemical hydrolysis in 0.02 M phosphate buffer, HPLC; type: physicochemical; conditions: for half-life: phosphate buffer
Protocol: For compounds 1a and 1d, the chromatographic analyses were performed using a 1260 Infinity II HPLC (Agilent, Santa Clara, CA, USA) consisting of a 1260 Infinity II Quaternary Pump (model G7111A), 1260 Infinity II auto-sampler (model G7129A), a 1260 Infinity II Multicolumn Thermostat (model G7116A), and a 1260 Infinity II Diode Array Detector (model G7115A) equipped with Poroshell 120 EC-C18 (150 × 4.6 mm i.d., particle size 4 µm, Agilent), operating at 20 °C.
Samples were run using a mixture of water and acetonitrile, enriched with trifluoroacetic acid (0.1% v/v) as mobile phase, in a gradient elution mode starting from 90% to 10% of water over 15 min (Table 2) at a flow rate of 0.8 mL/min. Stock solutions (10 mg/mL) were prepared by dissolving the exact amount of each compound in DMSO and acetonitrile (1:1), and then diluted with acetonitrile to reach 250 µg/mL concentration and analyzed by HPLC, setting the UV-detector at 254 nm.
CAPE, 1a and 1d stock solutions (10 mg/mL) were diluted in prewarmed (37 ± 0.5 °C) PBS solution to reach 10^−4 M concentration (50 mL); these conditions were used to initiate the reaction. At established time points, samples of 250 µL were withdrawn, filtered, and analyzed by HPLC. The pseudo-first-order rate constant (kobs) for the compound hydrolysis was calculated from the slops of the linear plots of ln (% residual compound) against time. The samples were analyzed in triplicate.

[2] = tested on: SAOS-2 osteoblastic cell lines; conditions: cited from earlier work
calvarial-derived cells = tested on: calvarial-derived cells; parameters: method as in Jun et al. 54; conditions: long-term cultures of calvarial-derived cells; ref Jun et al. 54; cited from earlier work
osteoblastic cells = tested on: osteoblastic cells; parameters: method as in PMID 17979115; conditions: cited from earlier work
BMP2 = assay: Real-time RT-PCR, BMP2 gene expression in DPSCs; type: cell-based; conditions: 0.5 µM, vs Control (diff)
Protocol: (§1) After 7, 14, and 21 days of treatment, DPSCs were collected and RNA was extracted by PureLink® RNA Mini Kit (Life Technologies, Carlsbad, CA, USA). An amount of 300 µL of lysis buffer supplied with 1% of 2-mercaptoethanol and then 300 µL of 70% v/v ethanol were added to each cell pellet, and samples were transferred into the Spin Cartridge for RNA extraction and purification. After washing with Wash Buffer supplied by the kit, samples were incubated for 15 min with 80 µL of DNase mixture (On-column PureLink® DNase Treatment, Thermo Fisher Scientific) to remove contaminating DNA. RNA extracted from each sample was eluted in 30 µL of Nuclease-Free Water. RNA concentration (ng/µL) was determined through Qubit® RNA BR Assay Kits (Thermo Fisher Scientifc).
(§2) A total of 1 µg of RNA was reverse-transcribed by high-capacity cDNA Reverse Transcription Kit (Life Technologies). Samples were incubated in a thermal cycler at 25 °C for 10 min, 37 °C for 2 h, and 85 °C for 5 min.
(§3) For all the examined mRNAs, gene expression was determined by quantitative PCR using PowerUpTM SYBRTM Green Master Mix (2×) (Thermo Fisher Scientific). Each amplification reaction was performed in a MicroAmp® Optical 96-well Reaction Plate (Life Technologies, Carlsbad, CA, USA) in a reaction volume of 20 µL made up of 10 µL of SYBR Green, 1 µM of each primer (stock solution 100 µM), 10 ng of cDNA and Nuclease-Free Water.
(§4) The run consisted of 50 °C for 2 min, 95 °C for 2 min, 40 cycles of amplification at 95 °C for 15 s and 60 °C for 1 min in QuantStudio 3 (Thermo Fisher Scientific). QuantStudio™ Design & Analysis Software v1.5.1 (Thermo Fisher Scientific) was used to elaborate gene expression data. The authenticity of the PCR products was verified by melt curve analysis. Each gene expression value was normalized to the expression level of 18S. The fold changes of the investigated genes were expressed in relation to the level of 18S at different time points. The relative abundance of mRNA (relative quantification) was quantified using the comparative ^2−∆∆Ct method.

[3] = tested on: Alkaline phosphatase (ALP) activity in DPSCs; assay: Alkaline phosphatase (ALP) activity in supernatants of differentiating DPSCs; type: cell-based; conditions: 0.5 µM; 3, 7, 14, 21 and 28 days; vs control (diff)
Protocol: (§5) DPSCs were seeded at a density of 3.5 × 10^4 in 12-well plates in the presence of differentiation medium, which consists of complete α-MEM supplemented with 10 nM dexamethasone, 10 mM β-glycerophosphate and 0.2 mM ascorbic acid phosphate (all purchased from Sigma-Aldrich, St. Louis, MO, USA). At the established experimental times (3, 7, 14, 21 and 28 days), cells and/or supernatants were collected for further analyses.
A colorimetric Alkaline Phosphate Assay Kit (Abcam, Cambridge, UK) was used following manufacturer’s instructions. Briefly, 50 µL of 5 mM p-nitrophenyl phosphate (pNPP) was added to 80 µL of each supernatant and then incubated for 1 h at room temperature in the dark. After the addition of 20 µL of stopping solution, the absorbance was read at 405 nm wavelength through a microplate reader (Multiskan GO, Thermo Fisher Scientific). The ALP activity (mU/mL/min) was calculated in accordance with the manufacturer’s protocol.

[4] = parameters: method as in PMID 39054610; conditions: 30 min at 50 °C; cited from earlier work
[5] = Thermal stability of the solid compounds, 1H-NMR before and after heating; type: physicochemical; conditions: 20 min at 100 °C, water bath, solid compound
Protocol: To ensure the suitability of compounds 1a and 1d for adsorption onto biomaterials, their thermal stability was confirmed. Initially, ^1H-NMR spectra were acquired for the compounds. Subsequently, they were subjected to heating for 20 min at 100 °C by immersing glass tubes containing the solid compounds in a water bath. Following the heating process, their ^1H-NMR spectra were reacquired and compared with the initial spectra to assess any alterations.

Osterix (SP7) = assay: Real-time RT-PCR, Osterix (SP7) gene expression in DPSCs; type: cell-based; conditions: 0.5 µM, vs control sample
Protocol: as §1, §2, §3, §4

DPSCs [6] = assay: Crystal violet cell viability assay of DPSCs in osteogenic medium; type: cell-based; conditions: 0.5, 1 and 5 µM; 3, 7, 14, 21 and 28 days; vs Control (diff)
Protocol: Dental pulp stem cells (DPSCs) were cultured in α-MEM medium (Merck, Darmstadt, Germany), supplemented with 10% fetal bovine serum (FBS) and 1% penicillin/streptomycin (Euroclone S.p.A., Milan, Italy). The cells were purchased from Lonza (Lonza Group Ltd., Basel, Switzerland) and kept at 37 °C and 5% CO2.
Cell viability (relative numbers compared to control cells) was determined by a crystal violet assay. After reaching the growth exponential phase, DPSCs were seeded into 48-well culture plates at a density of 8 × 10^3 cells per well. After 24 h, different concentrations (ranging from 0 to 5 µM) of each compound (1a, 1d, 2a and 2d) were added to DPSCs in an osteogenic medium, whereas cells cultured in the same osteogenic medium without CAPE derivatives served as control. After 3, 7, 14, 21, and 28 days, the medium was removed from each well, a wash with PBS was performed and cell were then fixed with glutaraldehyde (1%), and stained at room temperature with a crystal violet solution (0.02%) (both from Thermo Fisher Scientific, Waltham, MA, USA). After 30 min, the cells were rinsed with tap water, and bound crystal violet was dissolved in 70% ethanol. Then, absorbance was read at 600 nm with a spectrophotometer (Multiskan GO, Thermo Fisher Scientific, Waltham, MA, USA). The optical density readings were used to indicate cell survival relative to untreated cultures.

Collagen type I = assay: ELISA of collagen type I release in DPSC supernatants; type: cell-based, human; conditions: 0.5 µM; 7, 14 and 21 days; normalized on crystal violet values
Protocol: as §5
The release of collagen type I in cell supernatants was measured by a Human Collagen Type 1 ELISA kit (Cosmo Bio Co., Ltd., Tokyo, Japan; cat. no. ACE-EC1-E105-EX). The absorbance was measured at 450 nm spectrophotometrically (Multiskan GO, Thermo Fisher Scientific). The concentration of collagen type I (µg/mL) was calculated using a standard curve generated with specific standards provided by the manufacturers and normalized with the crystal violet values.

DPSCs [7] = assay: Alizarin Red S staining, extracellular mineralized matrix deposition; type: cell-based; conditions: for Extracellular mineralized matrix deposition compared to non-treated cells (Alizarin Red): 28 days in differentiation medium, 0.5, 1 and 5 µM; for Concentrations at which matrix deposition / mineralization is enhanced: 28 days, tested 0.5, 1 and 5 µM
Protocol: as §5
Alizarin red staining was performed after 28 days, by washing twice with PBS with Ca^2+/Mg^2+ each well, and fixing the cell monolayer of DPSCs in paraformaldehyde 4% for 15 min at room temperature. After washing twice with deionized water, 40 mM Alizarin Red S solution (Sigma-Aldrich) was added to each well and left at room temperature for 20 min on a shaker, followed by several rinses with deionized water in order to eliminate dye excess. For the spectrophotometric evaluation of calcium level deposits, 800 µL/well of 10% acetic acid was added to each well and then incubated for 30 min in agitation. Wells were then scraped and the sample containing calcium deposits was collected and vortexed. After the addition of hot mineral oil (Sigma-Aldrich), the samples were incubated on ice for 5 min and then centrifuged at 20,000× g for 15 min. After the removal of the supernatant, 10% ammonium hydroxide was added, and the optical density of 150 µL aliquots of this solution was measured at 405 nm through a microplate reader (Multiskan GO, Thermo Fisher Scientific).

Structure (SMILES)	Kobs ([1]; pH 4.5, 37 °C)	t1/2 ([1]; pH 4.5, 37 °C)	Kobs ([1]; pH 7.4)	half-life ([1]; pH 4.5, pH 4.5, 37 °C) [h]	half-life ([1]; pH 7.4, pH 7.4) [h]	Thermal stability (identical 1H NMR spectra before and after heat) [5]	BMP2 relative gene expression (BMP2; 21 days)	ALP activity compared to non-treated cells [3]	Thermal stability (consistent 1H NMR spectra before and after heat) [4]	Osx (SP7) relative gene expression (Osterix (SP7); 21 days) [fold]	Cell viability / toxicity towards DPSCs (DPSCs [6])	Collagen type I release with respect to the control sample (Collagen type I)	Extracellular mineralized matrix deposition compared to non-treated cells (Alizarin Red) (DPSCs [7])	Concentrations at which matrix deposition / mineralization is enhanced (DPSCs [7])	further results
O=C(/C=C/c1ccc(O)c(O)c1)OCCc1ccccc1 [CAPE, caffeic acid phenethyl ester]	0.006 (±0.0009) h^−1	117.5 (±2.10) h	0.018 (±0.004) h^−1	117	38.5										Cytotoxicity at similar concentrations (0.5-5 µM range) ([2]; SAOS-2 osteoblastic cell lines): does not exhibit cytotoxicity; Concentrations that reduce cell viability [2]: above 10 µM; Concentrations at which toxicity is reported (calvarial-derived cells): above 17.6 µM; ECM mineralization (osteoblastic cells; CAPE at 10 μM): reduction in ECM mineralization; ECM mineralization compared to the control group (osteoblastic cells; CAPE at concentrations up to 100 nM): greater mineralization
O=C(/C=C/c1ccccc1)Nc1cccc2cccnc12 [compound 2a]											no toxicity		no significant changes		
O=C(/C=C/c1ccc(O)c(O)c1)Nc1cccc2cccnc12 [compound 2d]							higher BMP2 expression only after 21 days	significantly higher than non-treated cells at all time points			no toxicity		more effective in enhancing matrix deposition	only enhance mineralization at the lowest concentration	

Continued, in another order:

Kobs ([1]; pH 4.5, 37 °C)	t1/2 ([1]; pH 4.5, 37 °C)	Kobs ([1]; pH 7.4)	half-life ([1]; pH 4.5, pH 4.5, 37 °C) [h]	half-life ([1]; pH 7.4, pH 7.4) [h]	Thermal stability (identical 1H NMR spectra before and after heat) [5]	Structure (SMILES)	BMP2 relative gene expression (BMP2; 21 days)	ALP activity compared to non-treated cells [3]	Thermal stability (consistent 1H NMR spectra before and after heat) [4]	Osx (SP7) relative gene expression (Osterix (SP7); 21 days) [fold]	Cell viability / toxicity towards DPSCs (DPSCs [6])	Collagen type I release with respect to the control sample (Collagen type I)	Extracellular mineralized matrix deposition compared to non-treated cells (Alizarin Red) (DPSCs [7])	Concentrations at which matrix deposition / mineralization is enhanced (DPSCs [7])	further results
0.009 (±0.0008) h^−1			80.6		stable	O=C(/C=C/c1ccccc1)Oc1cccc2cccnc12 [compound 1a]	2.2 fold	significantly higher than non-treated cells at all time points	stable	2.26	no toxicity	higher quantity of Collagen type I	more effective in enhancing matrix deposition	across all tested concentrations	BMP2 relative gene expression (BMP2; 14 days): 1.2 fold; t1/2 ([1]; pH 7.4): no degradation; also recorded: stable; Osx (SP7) relative gene expression (Osterix (SP7); 14 days): 4.8 fold
	no degradation; also recorded: stable	0.033 (±0.002) h^−1		21.2	stable	O=C(/C=C/c1ccc(O)c(O)c1)Oc1cccc2cccnc12 [compound 1d]		significantly higher than non-treated cells at all time points	stable	2.19	no toxicity	higher quantity of Collagen type I	more effective in enhancing matrix deposition	only enhance mineralization at the lowest concentration	BMP2 relative gene expression (BMP2; 7 days): significantly increased BMP2 expression
